What was measured:
Type in all cases: cell-based
[1] = tested on: virus HIV 1; experiment: Protocol 2: treatment of human lymphocytes during HIV 1 adsorption, reverse transcriptase activity in culture supernatant
Experimental: (§1) Pour chacun des trois protocoles qui suivent, on a préparé une solution mère de (5-amino-2-(4-méthyl-1-pipéridinyl)phényl)-(4-chlorophényl)-méthanone à 100 mg/l dans de l'eau physiologique contenant 9 g/l de chlorure de sodium et acidifiée à pH=3 par de l'acide chlorhydrique. La solution mère est ensuite diluée dans un milieu RPMI 1640 jusqu'à la concentration désirée. La solution ainsi obtenue est stérilisée par filtration sur membrane "MILLIPORE" ayant un diamètre moyen de pores de 0,22 m.
(§2) A partir de cellules T lymphoblastoïdes (lignée CEM) infectées par un virus HIV et donc susceptibles de produire ledit virus HIV, on recueille ce dernier par des moyens appropriés à partir d'un surnageant de culture desdites cellules.
(§3) Les cellules utilisées sont des lymphocytes de sujets normaux HIV négatifs isolés à partir du sang périphérique par gradient de Ficoll puis stimulés pendant trois jours par de la phytohémagglutinine p (en abrégé pHAp) avant leur utilisation.
(§4) Les lymphocytes sont ensuite cultivés dans le milieu RPMI 1640 contenant 10 % de sérum de veau foetal, 10 % d'interleukine II, 2 g/ml de polybrène, 1 % de glutamine, 1 % d'antibiotiques et une dilution au 1/2500 de sérum anti-interféron humain.
(§5) La production du virus HIV par des cellules T humaines traitées ou non par le produit a été régulièrement suivie par mesure de l'activité transcriptase inverse, représentative de la réplication virale, et présente dans 1 ml de surnageant de culture. On concentre 100 fois 1 ml de surnageant par ultracentrifugation puis on détermine l'activité enzymatique de cet échantillon dans 50 l d'un mélange réactionnel contenant 50 mM de tampon tris (hydroxyméthylaminométhane) de pH=7,9, 20 mM de KCl, 5 mM de MgCl₂, 1 mM de 1,4-dithiothréitol, 0,05 unité de densité optique par ml d'acide polyadénylique (5′), 0,05 unité de densité optique par ml d'acide oligodéoxythymidylique 12-18, 5 Ci de ³HTTP et 0,1 % de Triton X 100. Après une heure d'incubation à 37°C, les produits acido-insolubles sont précipités par de l'acide trichloracétique à 20 %, filtrés sur "MILLIPORE" 0,45 m, puis la radioactivité contenue dans ces produits de réaction est mesurée à l'aide d'un compteur à scintillation Kontron.
(§6) Les figures 1 à 3 qui représentent l'activité transcriptase inverse (A exprimée en cpm/ml) en fonction du temps (t exprimé en nombre de jours), comprennent chacune quatre courbes : T représentant l'activité transcriptase inverse dans la culture témoin. C₁ représentant l'activité transcriptase inverse pour la culture traitée par une dose de 0,1 g/ml de produit. C₂ représentant l'activité transcriptase inverse pour la culture traitée par une dose de 0,05 g/ml de produit, et C₃ représentant l'activité transcriptase inverse pour la culture traitée par une dose de 0,01 g/ml de produit. […]

[2] = tested on: virus HIV 1; experiment: Protocol 1: pre-treatment of human lymphocytes before HIV 1 infection, reverse transcriptase activity in culture supernatant
Experimental: as §1, §2, §3
Les lymphocytes sont ensuite cultivés dans le milieu RPMI 1640 contenant 10 % de sérum de veau foetal, 10 % d'interleukine II, 2 g/ml de polybrène, 1 % de glutamine, 1 % d'antibiotiques et une dilution au 1/2500 de sérum anti-interféron humain. […]

[3] = tested on: virus HIV 1; experiment: Protocol 3: treatment of human lymphocytes after HIV 1 adsorption (post-treatment), reverse transcriptase activity in culture supernatant
Experimental: as §1, §2, §3, §4, §5, §6

## CC1CCN(c2ccc(N)cc2C(=O)c2ccc(Cl)cc2)CC1 [produit, (5-amino-2-(4-méthyl-1-pipéridinyl)phényl)-(4-chlorophényl)-méthanone]
[1]; during viral adsorption, 0,1 µg/ml (curve C1)
  inhibition du pouvoir infectieux du virus HIV 1: maximale
[1]; during viral adsorption, 0,01 µg/ml (curve C3)
  inhibition du pouvoir infectieux du virus HIV 1: partielle
[1]; during viral adsorption, 0,05 µg/ml (curve C2)
  inhibition du pouvoir infectieux du virus HIV 1: partielle
[1]; product present during viral adsorption (1 h, 37°C), various concentrations (curves C1 to C3), figure 2
  inhibition du pouvoir infectieux du virus HIV 1 pour les cellules T humaines: inhibition très significative
[2]; pre-treatment 18 h before infection, human lymphocytes, whatever the dose (0,1, 0,05, 0,01 µg/ml), figure 1
  inhibition du pouvoir infectieux du virus HIV 1 (activité transcriptase inverse): inhibition partielle
[2]; pre-treatment, whatever the dose, versus untreated control culture
  retard dans l'apparition du pic de transcriptase inverse: retard important
[3]; post-treatment for three passages after adsorption, 0,1 µg/ml (curve C1), figure 3
  inhibition de l'infection virale: très significative
[3]; post-treatment, 0,01 µg/ml (curve C3)
  inhibition de l'infection virale: partielle
[3]; post-treatment, 0,05 µg/ml (curve C2)
  inhibition de l'infection virale: partielle
[3]; post-treatment, 0,1 g/ml, control peak / treated peak
  rapport des pics des courbes T et C₁ (activité transcriptase inverse): ~10

Reference: patent publication EP0307279A2, “Use of (5-amino-2-(4-methyl-1-piperidinyl)phenyl)-(4-chlorophenyl)methanone as an antiviral agent” (FOURNIER INNOVATION ET SYNERGIE, priority 1987, dated 1989)
